Test results as given in PubChem BioAssay (NCI).
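Compound exposure: 48 hours, 5 concentrations, 96-well plates. At the GI50, growth is halved. TGI denotes the concentration required for complete inhibition of growth.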

Assays:
Test in all cases: NCI anticancer screen, dose series, 48 h
[1] = test system: ACHN renal
[2] = test system: SNB-19 CNS
[3] = test system: TK-10 renal
[4] = test system: UO-31 renal
[5] = test system: KM12 colon
[6] = test system: U251 CNS
[7] = test system: RPMI-8226 leukemia
[8] = test system: MDA-MB-231 breast
[9] = test system: SK-MEL-5 melanoma
[10] = test system: HOP-92 NSCLC

| Compound | GI50 [1] | GI50 [2] | GI50 [3] | GI50 [4] | GI50 [5] | GI50 [6] | GI50 [7] | GI50 [8] | GI50 [9] | TGI [10] | TGI [1] | TGI [2] | TGI [3] | TGI [4] | TGI [5] | TGI [6] | TGI [7] | TGI [8] | TGI [9] | GI50 [10] |
| --- | --- | --- | --- | --- | --- | --- | --- | --- | --- | --- | --- | --- | --- | --- | --- | --- | --- | --- | --- | --- |
| NC(N)=NS(=O)(=O)c1ccc(Nc2c3ccccc3nc3c(C(=O)NCCO)cccc23)cc1 | 20 µM | 26.6 µM | 18.7 µM | 18 µM | 15.4 µM | 26 µM | 15 µM | 24.6 µM | 15.6 µM | 0.747 µM | – | – | – | – | – | – | – | – | – | – |
| O=C(Nc1ccc(F)cc1)Nc1ccc(Cl)c([N+](=O)[O-])c1 | 2.96 µM | 3.54 µM | 4.1 µM | 2.69 µM | 3.3 µM | 3.19 µM | 1.89 µM | 2.54 µM | 1.76 µM | 6.12 µM | 11 µM | 14.3 µM | 20.1 µM | 10.6 µM | 13.8 µM | 12.5 µM | 8.58 µM | 6.46 µM | 3.22 µM | 2.03 µM |
| COc1cc2c(cc1OCCCCN1CCN(CC(=O)Nc3ccc(Cl)cc3C(=O)c3ccccc3Cl)CC1)N=CC1CCCN1C2=O (stereo not given) | 0.431 µM | 0.36 µM | 0.311 µM | 0.267 µM | 0.215 µM | 0.327 µM | 0.0573 µM | 0.251 µM | 0.183 µM | 0.298 µM | 1.01 µM | 1.15 µM | 0.841 µM | 0.817 µM | 0.497 µM | 1.06 µM | 0.173 µM | 0.759 µM | 0.333 µM | 0.0982 µM |
| Cc1ccc(CN2CCC(C(=O)Nc3ccc(-c4cc5ccccc5[nH]4)cc3)CC2)o1 | > 100 µM | > 100 µM | > 100 µM | > 100 µM | 83.9 µM | 21 µM | > 100 µM | > 100 µM | 46.6 µM | > 100 µM | > 100 µM | > 100 µM | > 100 µM | > 100 µM | > 100 µM | > 100 µM | > 100 µM | > 100 µM | > 100 µM | 2.71 µM |
| CCOC(=O)Cn1c(C(F)(F)F)nc2nc(Cl)c(Cl)nc21 | – | – | – | – | – | – | – | – | – | 70.3 µM | > 67.9 µM | > 96.2 µM | > 100 µM | 10.9 µM | 34 µM | > 100 µM | 26.7 µM | > 100 µM | 76.9 µM | – |
| C=CC(=O)Nc1cc(Nc2ncc(C(=O)OC(C)C)c(-c3cn(C)c4ccccc34)n2)c(OC)cc1N(C)CCN(C)C | 0.0218 µM | 6.8 µM | < 0.01 µM | 0.442 µM | 5.85 µM | 3.98 µM | 2.86 µM | 2.66 µM | 1.78 µM | 10.1 µM | 12.1 µM | 22.4 µM | 5.19 µM | 12.9 µM | 13.9 µM | 12.2 µM | 14.6 µM | 8.26 µM | 3.21 µM | 2.02 µM |
| C=C(C)C(OC)C(O)CC1(C)CC(O)CC(C)(C2CCC3OC(C4(C)CCC(Br)C(C)(C)O4)CCC3(C)O2)O1 (stereo not given) | 26.4 µM | 3.28 µM | 16 µM | 15.7 µM | 17.5 µM | 25.5 µM | 12.7 µM | 20.3 µM | 13.2 µM | 34 µM | > 57.4 µM | 39 µM | 33.5 µM | 34.4 µM | 36.7 µM | > 61.9 µM | 38.1 µM | 43.8 µM | 28.4 µM | 15.8 µM |
| FC(F)(F)c1cccc(Nc2nc(-c3ccccc3)nc3ncccc23)c1 | 3.3 µM | 7.68 µM | 2.61 µM | 4.86 µM | 4.3 µM | 3.52 µM | 3.09 µM | 4.88 µM | 4.04 µM | 18 µM | 11.4 µM | 37.3 µM | 10.5 µM | 21.8 µM | > 100 µM | 14.7 µM | 9.16 µM | 41.2 µM | 30.8 µM | 4.65 µM |
| O=C(Nc1ccc(-n2ccc3c(NC(=O)c4ccccc4)nccc32)cc1)c1ccc(Cl)c(C(F)(F)F)c1 | 0.487 µM | 1.18 µM | 5.38 µM | 2.86 µM | 0.351 µM | 0.095 µM | 0.231 µM | 5.09 µM | 0.132 µM | > 42.2 µM | 15.4 µM | 13.1 µM | 13.5 µM | > 50 µM | 6.26 µM | 5.3 µM | 5.54 µM | 15 µM | 8.67 µM | 3.42 µM |
| O=C1NC(=NCCc2cccc(F)c2)S/C1=C\c1ccc2ncccc2c1 | 10.2 µM | 14.1 µM | > 12.4 µM | 16.7 µM | 1.07 µM | 1.46 µM | 1.73 µM | > 25 µM | 3.41 µM | > 25 µM | > 25 µM | > 25 µM | > 25 µM | > 25 µM | > 25 µM | > 25 µM | > 25 µM | > 25 µM | > 25 µM | > 25 µM |
| Cc1ccc2c(C)c3c(ccc4ccccc43)c[n+]2c1 | 29.6 µM | 2.84 µM | 68.3 µM | 27.8 µM | 1.56 µM | 2.8 µM | 4.92 µM | 13.5 µM | 2.25 µM | 35.2 µM | > 100 µM | 24.7 µM | > 100 µM | > 100 µM | 14.8 µM | 18.6 µM | 41.2 µM | 46.2 µM | 10.4 µM | 6.28 µM |
| CCN1/C(=C\c2cc[n+](CC)c3ccccc23)C=Cc2ccccc21 | 1.19 µM | 0.163 µM | 0.448 µM | 1.89 µM | 0.104 µM | 0.119 µM | 0.0503 µM | 0.273 µM | 0.0605 µM | 0.937 µM | 5.88 µM | 11.7 µM | 13.7 µM | 8.1 µM | 1.42 µM | 12.7 µM | 0.753 µM | 10.2 µM | 0.215 µM | 0.161 µM |
